Measured values reported in ChEMBL document CHEMBL1201862, “PubChem BioAssay data set” (2004).
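These data come from cells grown in 96-well plates and exposed to compound for 48 hours at five concentrations. Abbreviation: GI50, concentration required for 50% inhibition of growth.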 Calls of active or inactive are those of the source. Rule as the data show it: active = GI50 up to about 1.1 µM and inactive = higher.

How the values were obtained:
Assay in all cases: NCI anticancer screen, dose series, 48 h
[1] = test system: COLO 205
[2] = test system: EKVX
[3] = test system: HCT-15
[4] = test system: HL-60
[5] = test system: HT-29
[6] = test system: M14
[7] = test system: MCF7
[8] = test system: MDA-MB-231
[9] = test system: MDA-N
[10] = test system: Malme-3M
[11] = test system: NCI/ADR-RES
[12] = test system: OVCAR-8
[13] = test system: RXF 393
[14] = test system: SF-268
[15] = test system: SF-295
[16] = test system: SK-MEL-28
[17] = test system: SK-MEL-5
[18] = test system: SN12C
[19] = test system: SNB-19
[20] = test system: UACC-62

SMILES | GI50 [1] | GI50 [2] | GI50 [3] [nM] | GI50 [4] | GI50 [5] | GI50 [6] | GI50 [7] | GI50 [8] | GI50 [9] | GI50 [10] | GI50 [11] | GI50 [12] | GI50 [13] | GI50 [14] | GI50 [15] | GI50 [16] | GI50 [17] | GI50 [18] | GI50 [19] | GI50 [20]
CCOC(=O)C1Cc2c(cc3c4c(cccc24)N(C(C)=O)C3)N(C)C1 (stereo not given) | > 100000 nM (inactive) | 9590 nM (inactive) | > 100000 | 11300 nM (inactive) | > 100000 nM (inactive) | 29900 nM (inactive) | 32700 nM (inactive) | 1400 nM (inactive) | 1670 nM (inactive) | 5180 nM (inactive) | 1640 nM (inactive) | 3970 nM (inactive) | 4130 nM (inactive) | 5860 nM (inactive) | 8260 nM (inactive) | > 100000 nM (inactive) | > 100000 nM (inactive) | 6040 nM (inactive) | > 100000 nM (inactive) | 13400 nM (inactive)
COc1cc(/C=C2\C[C@H]3[C@@H]4CC=C5C=C(N6CCCC6)CC[C@]5(C)[C@H]4CC[C@]3(C)C2=O)cc(OC)c1OC | 2770 nM (inactive) | 3750 nM (inactive) | 2230 | 1130 nM (inactive) | 2950 nM (inactive) | 2190 nM (inactive) | 3220 nM (inactive) | 2400 nM (inactive) | 2320 nM (inactive) | 2010 nM (inactive) | 2650 nM (inactive) | 2160 nM (inactive) | 1900 nM (inactive) | 2230 nM (inactive) | 2220 nM (inactive) | 4550 nM (inactive) | 2760 nM (inactive) | 2850 nM (inactive) | 3730 nM (inactive) | 2130 nM (inactive)
Nc1ccc2c(c1)N(C(=O)CCCC(=O)N1CC(CCl)c3ccc(N)cc31)CC2CCl (stereo not given) | 735 nM (active) | 1510 nM (inactive) | 1240 | 19.9 nM (active) | 946 nM (active) | 604 nM (active) | 333 nM (active) | 1430 nM (inactive) | 1060 nM (active) | 88.3 nM (active) | 1150 nM (inactive) | 466 nM (active) | 195 nM (active) | 115 nM (active) | 400 nM (active) | 1230 nM (inactive) | 236 nM (active) | 469 nM (active) | 1210 nM (inactive) | 354 nM (active)
COc1cccc(Nc2nc(N)nc(N)c2N)c1 | 34400 nM (inactive) | > 100000 nM (inactive) | 36900 | 24200 nM (inactive) | 40700 nM (inactive) | > 100000 nM (inactive) | 30400 nM (inactive) | 22100 nM (inactive) | 19500 nM (inactive) | > 100000 nM (inactive) | > 100000 nM (inactive) | 65200 nM (inactive) | > 100000 nM (inactive) | > 100000 nM (inactive) | 29700 nM (inactive) | > 100000 nM (inactive) | 30300 nM (inactive) | 20100 nM (inactive) | > 100000 nM (inactive) | 58200 nM (inactive)
CC(C)=CCC[C@@H](C)C1=C(O)C(=O)C(C)=C(N[C@H](C)c2ccccc2)C1=O | 4330 nM (inactive) | 5080 nM (inactive) | 2670 | 2210 nM (inactive) | 3780 nM (inactive) | 5410 nM (inactive) | 3640 nM (inactive) | 7350 nM (inactive) | 7230 nM (inactive) | 3240 nM (inactive) | 1300 nM (inactive) | 2580 nM (inactive) | 6710 nM (inactive) | 7010 nM (inactive) | 3860 nM (inactive) | 6760 nM (inactive) | 3080 nM (inactive) | 6550 nM (inactive) | 6070 nM (inactive) | 2810 nM (inactive)
Cc1cc(O)c2c(c1)C[C@@H](O)C1=C2C(=O)c2c(O)ccc(OC3CC(O)C(OC4CC(OC5CCC(OC6CC(O)C(OC7CC(OC8CCC(O)C(C)O8)C(O)C(C)O7)C(C)O6)C(C)O5)C(O)C(C)O4)C(C)O3)c2C1=O (stereo not given in full) | 48.8 nM (active) | 112 nM (active) | 68.4 | 36.4 nM (active) | 92 nM (active) | 78.9 nM (active) | 324 nM (active) | 171 nM (active) | 155 nM (active) | 51.6 nM (active) | 30.8 nM (active) | 22.4 nM (active) | 68.7 nM (active) | 24.3 nM (active) | 44.1 nM (active) | 70 nM (active) | 87.9 nM (active) | 58.1 nM (active) | 177 nM (active) | 70.2 nM (active)
